Test results from PubChem BioAssay AID248 (DTP/NCI, 2004).
Several values for one entry are separate records, joined by “and”; a condition that tells them apart may be missing. Equal entries are not always repeated. Inconclusive results and toxic doses are left out. No stated cut-off is given here; in the data, active means T/C of 150% or more; inactive means T/C below 125%.

System: L1210 leukemia ip in BDF1 mice, survival T/C
Assay: NCI In Vivo Anticancer Drug Screen. Data for tumor model L1210 Leukemia (intraperitoneal) in B6D2F1 (BDF1) mice
Details: endpoint: mean survival time, higher = longer survival
Summary of the method: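 Antitumor effect is assessed in tumor-bearing animals. Survival in the compound arm is compared with a vehicle-dosed control arm and expressed as their quotient.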

[1] = dose: 100.0 mg/kg/injection, schedule: Q01DX009 (ip), vehicle: Klucel (hydroxypropylcellulose) (HPC)
[2] = dose: 200.0 mg/kg/injection, schedule: Q01DX009 (ip), vehicle: Klucel (hydroxypropylcellulose) (HPC)
[3] = dose: 400.0 mg/kg/injection, schedule: Q01DX009 (ip), vehicle: Klucel (hydroxypropylcellulose) (HPC)
[4] = dose: 100.0 mg/kg/injection, schedule: Q04DX003 (ip), vehicle: saline with Tween-80
[5] = dose: 200.0 mg/kg/injection, schedule: Q04DX003 (ip), vehicle: saline with Tween-80
[6] = dose: 400.0 mg/kg/injection, schedule: Q04DX003 (ip), vehicle: saline with Tween-80
[7] = dose: 100.0 mg/kg/injection, schedule: Q04DX003 (ip), vehicle: Klucel (hydroxypropylcellulose) (HPC)
[8] = dose: 200.0 mg/kg/injection, schedule: Q04DX003 (ip), vehicle: Klucel (hydroxypropylcellulose) (HPC)
[9] = dose: 400.0 mg/kg/injection, schedule: Q04DX003 (ip), vehicle: Klucel (hydroxypropylcellulose) (HPC)
[10] = dose: 100.0 mg/kg/injection, schedule: Q04DX002 (ip), vehicle: saline with Tween-80
[11] = dose: 100.0 mg/kg/injection, schedule: Q01DX009 (ip), vehicle: saline with Tween-80
[12] = dose: 200.0 mg/kg/injection, schedule: Q01DX009 (ip), vehicle: saline with Tween-80
[13] = dose: 400.0 mg/kg/injection, schedule: Q01DX009 (ip), vehicle: saline with Tween-80

Measured: T/C

Cc1c(CCl)c(C)c(CCl)c(C)c1CCl
inactive: dose: 12.0 mg/kg/injection, schedule: Q04DX003 (ip), vehicle: Klucel (hydroxypropylcellulose) (HPC) 105 % of control | dose: 25.0 mg/kg/injection, schedule: Q01DX009 (ip), vehicle: Klucel (hydroxypropylcellulose) (HPC) 88 % of control | dose: 25.0 mg/kg/injection, schedule: Q04DX003 (ip), vehicle: Klucel (hydroxypropylcellulose) (HPC) 100 % of control | dose: 50.0 mg/kg/injection, schedule: Q01DX009 (ip), vehicle: Klucel (hydroxypropylcellulose) (HPC) 100 % of control | dose: 50.0 mg/kg/injection, schedule: Q04DX003 (ip), vehicle: Klucel (hydroxypropylcellulose) (HPC) 100 % of control

C1=C(c2ccccc2)N(C2CCCCC2)C(c2ccccc2)=CN1Cc1ccccc1
inactive: dose: 100.0 mg/kg/injection, schedule: Q04DX002 (ip), vehicle: Klucel (hydroxypropylcellulose) (HPC) 92 % of control | dose: 200.0 mg/kg/injection, schedule: Q04DX002 (ip), vehicle: Klucel (hydroxypropylcellulose) (HPC) 92 % of control

CCOC(=O)c1ccc(NCC(=N)N)cc1
inactive: dose: 100.0 mg/kg/injection, schedule: Q01DX001 (ip), vehicle: saline sonified 103 % of control | dose: 200.0 mg/kg/injection, schedule: Q01DX001 (ip), vehicle: saline sonified 100 % of control

CNS(=O)(=O)c1cc(C)ccc1C
inactive: [1] 94 % of control | [2] 95 % of control | [3] 100 % of control

CC1(C)C(=O)C=C(N2CCCCC2)c2ccccc21
inactive: [4] 101 % of control | [5] 98 % of control | [6] 97 % of control

Cc1nc(N=C(N)N)nc2ccc(Cl)cc12
inactive: dose: 18.8 mg/kg/injection, schedule: Q04DX003 (ip), vehicle: saline 96 % of control | dose: 37.5 mg/kg/injection, schedule: Q04DX003 (ip), vehicle: saline 105 % of control | dose: 75.0 mg/kg/injection, schedule: Q01DX001 (ip), vehicle: saline 101 % of control | dose: 75.0 mg/kg/injection, schedule: Q04DX003 (ip), vehicle: saline 100 % of control

CS(=O)(=O)Oc1c(Cl)cc(Cl)c2ccccc12
inactive: dose: 100.0 mg/kg/injection, schedule: Q01DX001 (ip), vehicle: saline 98 % of control | dose: 200.0 mg/kg/injection, schedule: Q01DX001 (ip), vehicle: saline 92 % of control | dose: 400.0 mg/kg/injection, schedule: Q01DX001 (ip), vehicle: saline 101 % of control

CCCCCCCC(=O)C(C)C
inactive: [1] 95 % of control | [7] 99 % of control | [2] 98 % of control | [8] 100 % of control | [3] 102 % of control | [9] 91 % of control

O=C(N/N=C/c1c(O)ccc2ccccc12)c1ccccc1
inactive: [1] 113 % of control | [2] 103 % of control | [3] 108 % of control

Cc1ccc(C)c(NC(=O)Nc2ccccc2C)c1
inactive: [1] 88 % of control | [7] 86 % of control | [2] 101 % of control and 90 % of control | [8] 89 % of control | [9] 89 % of control

CN(C)Cc1cc(Cl)cc(CN(C)C)c1O
inactive: [10] 104 % of control | dose: 100.0 mg/kg/injection, schedule: Q04DX003 (ip), vehicle: saline 99 % of control | dose: 200.0 mg/kg/injection, schedule: Q04DX003 (ip), vehicle: saline 104 % of control

O=C(O)c1ccc(/C=N/NC(=O)C(O)(c2ccccc2)c2ccccc2)cc1
inactive: dose: 100.0 mg/kg/injection, schedule: Q01DX001 (ip), vehicle: carboxymethylcellulose (CMC) 108 % of control | dose: 200.0 mg/kg/injection, schedule: Q01DX001 (ip), vehicle: carboxymethylcellulose (CMC) 108 % of control | dose: 400.0 mg/kg/injection, schedule: Q01DX001 (ip), vehicle: carboxymethylcellulose (CMC) 108 % of control

Cn1c2ccccc2[n+]2c(N)scc12
inactive: dose: 12.5 mg/kg/injection, schedule: Q04DX002 (ip), vehicle: saline 101 % of control | dose: 25.0 mg/kg/injection, schedule: Q04DX002 (ip), vehicle: saline 115 % of control | dose: 50.0 mg/kg/injection, schedule: Q04DX002 (ip), vehicle: saline 96 % of control and 91 % of control | dose: 100.0 mg/kg/injection, schedule: Q04DX002 (ip), vehicle: saline 102 % of control

C=CCNC(=O)N(CC=C)N=O
inactive: dose: 1.5 mg/kg/injection, schedule: Q01DX001 (ip), vehicle: carboxymethylcellulose (CMC) 102 % of control | dose: 3.0 mg/kg/injection, schedule: Q01DX001 (ip), vehicle: carboxymethylcellulose (CMC) 95 % of control | dose: 6.0 mg/kg/injection, schedule: Q01DX001 (ip), vehicle: carboxymethylcellulose (CMC) 96 % of control | dose: 12.0 mg/kg/injection, schedule: Q01DX001 (ip), vehicle: carboxymethylcellulose (CMC) 90 % of control | dose: 16.0 mg/kg/injection, schedule: Q01DX001 (ip), vehicle: carboxymethylcellulose (CMC) 102 % of control | dose: 31.0 mg/kg/injection, schedule: Q01DX001 (ip), vehicle: carboxymethylcellulose (CMC) 104 % of control | dose: 62.0 mg/kg/injection, schedule: Q01DX001 (ip), vehicle: carboxymethylcellulose (CMC) 100 % of control | dose: 125.0 mg/kg/injection, schedule: Q01DX001 (ip), vehicle: carboxymethylcellulose (CMC) 96 % of control

O=C(NC(=S)Nc1cccc2c(O)cccc12)c1ccc(Cl)cc1Cl
inactive: dose: 100.0 mg/kg/injection, schedule: Q01DX001 (ip), vehicle: saline with Tween-80 105 % of control | [11] 98 % of control and 90 % of control | [10] 95 % of control and 98 % of control | [4] 103 % of control | dose: 200.0 mg/kg/injection, schedule: Q01DX001 (ip), vehicle: saline with Tween-80 103 % of control | [12] 97 % of control and 117 % of control | dose: 200.0 mg/kg/injection, schedule: Q04DX002 (ip), vehicle: saline with Tween-80 101 % of control and 106 % of control | [5] 92 % of control | dose: 400.0 mg/kg/injection, schedule: Q01DX001 (ip), vehicle: saline with Tween-80 106 % of control | [13] 94 % of control and 98 % of control | dose: 400.0 mg/kg/injection, schedule: Q04DX002 (ip), vehicle: saline with Tween-80 95 % of control and 90 % of control | [6] 94 % of control

CC1(C)N=C(N)N=C(N)N1c1ccc(OCCNS(=O)(=O)c2ccc(S(=O)(=O)F)cc2)c(Cl)c1
inactive: [4] 105 % of control

Cc1c(F)cccc1C(=O)O
inactive: dose: 100.0 mg/kg/injection, schedule: Q01DX009 (ip), vehicle: carboxymethylcellulose (CMC) 101 % of control and 102 % of control | dose: 100.0 mg/kg/injection, schedule: Q04DX002 (ip), vehicle: carboxymethylcellulose (CMC) 100 % of control | dose: 100.0 mg/kg/injection, schedule: Q04DX003 (ip), vehicle: carboxymethylcellulose (CMC) 103 % of control | dose: 200.0 mg/kg/injection, schedule: Q01DX009 (ip), vehicle: carboxymethylcellulose (CMC) 102 % of control and 87 % of control | dose: 200.0 mg/kg/injection, schedule: Q04DX002 (ip), vehicle: carboxymethylcellulose (CMC) 93 % of control and 105 % of control | dose: 200.0 mg/kg/injection, schedule: Q04DX003 (ip), vehicle: carboxymethylcellulose (CMC) 103 % of control | dose: 400.0 mg/kg/injection, schedule: Q01DX009 (ip), vehicle: carboxymethylcellulose (CMC) 97 % of control and 90 % of control | dose: 400.0 mg/kg/injection, schedule: Q04DX002 (ip), vehicle: carboxymethylcellulose (CMC) 93 % of control and 102 % of control | dose: 400.0 mg/kg/injection, schedule: Q04DX003 (ip), vehicle: carboxymethylcellulose (CMC) 101 % of control

O=C(O)/C=C/C(=O)NCc1ccco1
inactive: [11] 98 % of control | [12] 96 % of control | [13] 101 % of control
